Values quoted from earlier work as cited in PubChem BioAssay AID1259409 (Chemical Carcinogenesis Research Information System (CCRIS), 2018).

System: rodent chemically induced tumor inhibition, incidence and multiplicity
Test: CCRIS tumor inhibitor studies
Settings: Carcinogen: N-NITROSOBIS(2-OXYPROPYL)AMINE, 60599-38-4, Route [Inhibitor]: ORAL, Species: HAMSTER, Promoter: NONE USED

CCNC(=O)/C=C(C)/C=C/C=C(C)/C=C/C1=C(C)CCCC1(C)C
tumour outcome (control, treated, inhibition, significance) (Dose [Inhibitor]: 0.05, 0.1 OR 0.2 MILLIMOLAR/KG DIET FOR 32 WK STARTING 1 WK AFTER THE CARCINOGEN DOSE (STUDY DURATION: 33 WK), Strain/Sex: SYRIAN/FEMALE, Target Tissue: Type of Lesion: GALL BLADDER: ADENOMA, Dose [Carcinogen]: 40 MG/KG ONCE): 6/10 (60%), 2/23 (9%), 85%, p<0.025
tumour outcome (control, treated, inhibition, significance) (Dose [Inhibitor]: 0.05, 0.1 OR 0.2 MILLIMOLAR/KG DIET FOR 32 WK STARTING 1 WK AFTER THE CARCINOGEN DOSE (STUDY DURATION: 33 WK), Strain/Sex: SYRIAN/FEMALE, Target Tissue: Type of Lesion: LIVER: ADENOMA, Dose [Carcinogen]: 40 MG/KG ONCE): 6/10 (60%), 13/23 (59%), 2%, not significant
tumour outcome (control, treated, inhibition, significance) (Dose [Inhibitor]: 0.05, 0.1 OR 0.2 MILLIMOLAR/KG DIET FOR 32 WK STARTING 1 WK AFTER THE CARCINOGEN DOSE (STUDY DURATION: 33 WK), Strain/Sex: SYRIAN/FEMALE, Target Tissue: Type of Lesion: LUNG: ADENOMA, Dose [Carcinogen]: 40 MG/KG ONCE): 3/10 (30%), 9/23 (41%), -37%, not significant
tumour outcome (control, treated, inhibition, significance) (Dose [Inhibitor]: 0.05, 0.1 OR 0.2 MILLIMOLAR/KG DIET FOR 32 WK STARTING 1 WK AFTER THE CARCINOGEN DOSE (STUDY DURATION: 33 WK), Strain/Sex: SYRIAN/FEMALE, Target Tissue: Type of Lesion: PANCREAS: ADENOMA, Dose [Carcinogen]: 40 MG/KG ONCE): 10/10 (100%), 22/23 (96%), 4%, not significant
tumour outcome (control, treated, inhibition, significance) (Dose [Inhibitor]: 0.05, 0.1 OR 0.2 MILLIMOLAR/KG DIET FOR 32 WK STARTING 1 WK AFTER THE CARCINOGEN DOSE (STUDY DURATION: 33 WK), Strain/Sex: SYRIAN/FEMALE, Target Tissue: Type of Lesion: PANCREAS: CARCINOMA, Dose [Carcinogen]: 40 MG/KG ONCE): 4/10 (40%), 10/23 (43%), -8%, not significant
tumour outcome (control, treated, inhibition, significance) (Dose [Inhibitor]: 0.05, 0.1 OR 0.2 MILLIMOLAR/KG DIET FOR 32 WK STARTING 1 WK AFTER THE CARCINOGEN DOSE (STUDY DURATION: 33 WK), Strain/Sex: SYRIAN/MALE, Target Tissue: Type of Lesion: COMMON DUCT: ADENOMA, Dose [Carcinogen]: 40 MG/KG ONCE): 4/12 (33%), 14/26 (54%), -64%, not significant
tumour outcome (control, treated, inhibition, significance) (Dose [Inhibitor]: 0.05, 0.1 OR 0.2 MILLIMOLAR/KG DIET FOR 32 WK STARTING 1 WK AFTER THE CARCINOGEN DOSE (STUDY DURATION: 33 WK), Strain/Sex: SYRIAN/MALE, Target Tissue: Type of Lesion: GALL BLADDER: ADENOMA, Dose [Carcinogen]: 40 MG/KG ONCE): 3/12 (25%), 10/26 (39%), -56%, not significant
tumour outcome (control, treated, inhibition, significance) (Dose [Inhibitor]: 0.05, 0.1 OR 0.2 MILLIMOLAR/KG DIET FOR 32 WK STARTING 1 WK AFTER THE CARCINOGEN DOSE (STUDY DURATION: 33 WK), Strain/Sex: SYRIAN/MALE, Target Tissue: Type of Lesion: LIVER: ADENOMA, Dose [Carcinogen]: 40 MG/KG ONCE): 6/12 (50%), 12/26 (46%), 8%, not significant
tumour outcome (control, treated, inhibition, significance) (Dose [Inhibitor]: 0.05, 0.1 OR 0.2 MILLIMOLAR/KG DIET FOR 32 WK STARTING 1 WK AFTER THE CARCINOGEN DOSE (STUDY DURATION: 33 WK), Strain/Sex: SYRIAN/MALE, Target Tissue: Type of Lesion: LUNG: ADENOMA, Dose [Carcinogen]: 40 MG/KG ONCE): 1/12 (8%), 2/26 (8%), 0%, not significant
tumour outcome (control, treated, inhibition, significance) (Dose [Inhibitor]: 0.05, 0.1 OR 0.2 MILLIMOLAR/KG DIET FOR 32 WK STARTING 1 WK AFTER THE CARCINOGENDOSE (STUDY DURATION: 33 WK), Strain/Sex: SYRIAN/MALE, Target Tissue: Type of Lesion: PANCREAS: ADENOMA, Dose [Carcinogen]: 40 MG/KG ONCE): 12/12 (100%), 26/26 (100%), 0%, not significant
tumour outcome (control, treated, inhibition, significance) (Dose [Inhibitor]: 0.05, 0.1 OR 0.2 MILLIMOLAR/KG DIET FOR 32 WK STARTING 1 WK AFTER THE CARCINOGENDOSE (STUDY DURATION: 33 WK), Strain/Sex: SYRIAN/MALE, Target Tissue: Type of Lesion: PANCREAS: CARCINOMA, Dose [Carcinogen]: 40 MG/KG ONCE): 6/12 (50%), 13/26 (50%), 0%, not significant
tumour outcome (control, treated, inhibition, significance) (Dose [Inhibitor]: 0.05, 0.1 OR 0.2 MM/KG DIET FOR 32 WK STARTING 1 WK AFTER THE CARCINOGEN DOSE (STUDY DURATION: 33 WK), Strain/Sex: SYRIAN/FEMALE, Target Tissue: Type of Lesion: PANCREAS: ADENOCARCINOMA, Dose [Carcinogen]: 40 MG/KG ONCE): 2/10 (20%), 2/23 (9%), 55%, not significant
tumour outcome (control, treated, inhibition, significance) (Dose [Inhibitor]: 0.05, 0.1 OR 0.2 MM/KG DIET FOR 32 WK STARTING 1 WK AFTER THE CARCINOGEN DOSE (STUDY DURATION: 33 WK), Strain/Sex: SYRIAN/FEMALE, Target Tissue: Type of Lesion: PANCREAS: CARCINOMA IN SITU, Dose [Carcinogen]: 40 MG/KG, ONCE, ONE WK PRIOR TO START OF AGENT TREATMENT): 1/10 (10%), 7/23 (30%), -200%, not significant
tumour outcome (control, treated, inhibition, significance) (Dose [Inhibitor]: 0.05, 0.1 OR 0.2 MM/KG DIET FOR 32 WK STARTING 1 WK AFTER THE CARCINOGEN DOSE (STUDY DURATION: 33 WK), Strain/Sex: SYRIAN/FEMALE, Target Tissue: Type of Lesion: PANCREAS: INTRADUCTAL CARCINOMA, Dose [Carcinogen]: 40 MG/KG, ONCE, ONE WK PRIOR TO START OF AGENT TREATMENT): 2/10 (20%), 3/23 (9%), 55%, not significant
tumour outcome (control, treated, inhibition, significance) (Dose [Inhibitor]: 0.05, 0.1 OR 0.2 MM/KG DIET FOR 32 WK STARTING 1 WK AFTER THE CARCINOGEN DOSE (STUDY DURATION: 33 WK), Strain/Sex: SYRIAN/MALE, Target Tissue: Type of Lesion: PANCREAS: ADENOCARCINOMA, Dose [Carcinogen]: 40 MG/KG, ONCE, ONE WK PRIOR TO START OF AGENT TREATMENT): 1/12 (8%), 2/26 (8%), 0%, not significant
tumour outcome (control, treated, inhibition, significance) (Dose [Inhibitor]: 0.05, 0.1 OR 0.2 MM/KG DIET FOR 32 WK STARTING 1 WK AFTER THE CARCINOGEN DOSE (STUDY DURATION: 33 WK), Strain/Sex: SYRIAN/MALE, Target Tissue: Type of Lesion: PANCREAS: CARCINOMA IN SITU, Dose [Carcinogen]: 40 MG/KG, ONCE, ONE WK PRIOR TO START OF AGENT TREATMENT): 3/12 (25%), 8/26 (31%), -24%, not significant
tumour outcome (control, treated, inhibition, significance) (Dose [Inhibitor]: 0.05, 0.1 OR 0.2 MM/KG DIET FOR 32 WK STARTING 1 WK AFTER THE CARCINOGEN DOSE (STUDY DURATION: 33 WK), Strain/Sex: SYRIAN/MALE, Target Tissue: Type of Lesion: PANCREAS: INTRADUCTAL CARCINOMA, Dose [Carcinogen]: 40 MG/KG, ONCE, ONE WK PRIOR TO START OF AGENT TREATMENT): 2/12 (17%), 3/26 (12%), 29%, not significant
tumour outcome (control, treated, inhibition, significance) (Dose [Inhibitor]: 0.05, 0.1 OR 0.2 MM/KG DIET FOR 32 WK STARTING 1 WK AFTER THE CARCINOGEN DOSE (STUDY DURATION: 33 WK), Strain/Sex: SYRIAN/MALE, Target Tissue: Type of Lesion: PANCREAS: MICROCARCINOMA, Dose [Carcinogen]: 40 MG/KG, ONCE, ONE WK PRIOR TO START OF AGENT TREATMENT): 3/12 (25%), 4/26 (15%), 40%, not significant
